Measured values from paper PMC2990605 (British Journal of Cancer, 2010).
“Also recorded” adds a separate entry of the source.

Tests used:
[1] = Dose-limiting toxicity and maximum tolerated dose of the paclitaxel/tosedostat combination; format: in vivo, patients
Protocol: The starting dose of CHR-2797 was 90 mg daily, below the MTD.
Toxicity was evaluated according to common toxicity criteria for adverse events (CTCAEv3.0). The MTD was defined as the dose level(s) at which at least two out of six patients developed DLT.

[2] = system: advanced solid malignancies; test: Antitumour activity, Response Evaluation Criteria in Solid Tumors; format: in vivo, patients; settings: tosedostat with paclitaxel
Protocol: Response was evaluated according to Response Evaluation Criteria in Solid Tumors ([Therasse et al, 2000]) after every second cycle.

[3] = system: human promyelocytic leukaemia cell line HL-60; design: method as in Krige et al, 2008; settings: ref Krige et al, 2008; cited from earlier work
[4] = system: cancer cell lines; design: method as in Jenkins et al, 2007; Moore et al, 2009; settings: wide range of cancer cell lines in vitro; ref Jenkins et al, 2007; Moore et al, 2009; cited from earlier work
[5] = system: transformed cells; design: method as in Krige et al, 2008; settings: in vitro and in vivo experiments; ref Krige et al, 2008; cited from earlier work
[6] = cited from earlier work
[7] = Plasma pharmacokinetics of tosedostat, CHR-79888 and paclitaxel (LC-MS/MS, noncompartmental); settings: for AUC(0-t) / Cmax / Tmax / half-life / Vd/F: human, oral, mean (±s.e.m.); for AUC(0-t): AUC0−t; for half-life: T½; for Vd/F: Vz/F
Protocol: On day 21, samples were taken until 8 h post-dose; the day 22 predose sample was used as the 24 h sample of day 21. […] Peak plasma concentrations (Cmax), overall drug exposure (AUC), and terminal plasma half-life (t½) were calculated using noncompartmental methods using WinNonlin Professional software (version 4.1, Pharsight Corporation, St Louis, MO, USA). Pharmacokinetics analysis, with reference to possible interactions, was descriptive.

[8] = plasma, 90 mg, cohort 1: CHR-2797 90 mg, paclitaxel 135 mg m^−2, day 21, tosedostat without paclitaxel, plasma
[9] = plasma, 90 mg, cohort 2: CHR-2797 90 mg, paclitaxel 175 mg m^−2, day 21, tosedostat without paclitaxel, plasma
[10] = plasma, 130 mg, cohort 3: CHR-2797 130 mg, paclitaxel 175 mg m^−2, day 21, tosedostat without paclitaxel, plasma
[11] = plasma, 180 mg, cohort 4: CHR-2797 180 mg, paclitaxel 175 mg m^−2, day 21, tosedostat without paclitaxel, plasma
[12] = plasma, cohort 1: CHR-2797 90 mg, paclitaxel 135 mg m^−2, day 22, tosedostat in combination with paclitaxel, plasma
[13] = plasma, cohort 2: CHR-2797 90 mg, paclitaxel 175 mg m^−2, day 22, tosedostat in combination with paclitaxel, plasma
[14] = plasma, cohort 3: CHR-2797 130 mg, paclitaxel 175 mg m^−2, day 22, tosedostat in combination with paclitaxel, plasma
[15] = plasma, cohort 4: CHR-2797 180 mg, paclitaxel 175 mg m^−2, day 22, tosedostat in combination with paclitaxel, plasma

CC(C)C[C@@H](C(=O)N[C@H](C(=O)OC1CCCC1)c1ccccc1)[C@H](O)C(=O)NO [tosedostat]
DLTs observed in the study ([1]; all cohorts, 22 patients, tosedostat with paclitaxel): only one DLT observed in 22 patients
DLT ([1]; cohort 5: tosedostat 180 mg combined with paclitaxel 175 mg m^−2, one patient, first 21 days): One DLT (grade 3 dyspnoea); also recorded: CTC grade 3 dyspnoea, with grade 2 fever and persistent grade 3 urinary tract infection
grade 3/4 toxicity in dose-escalation phase ([1]; cohort 6: 175 mg m^−2 paclitaxel, 240 mg tosedostat, three patients): without any grade 3/4 toxicity
MTD of tosedostat combined with paclitaxel ([1]; tosedostat 90–240 mg daily, paclitaxel 135–175 mg m^−2 every 3 weeks): No formal MTD was determined; also recorded: Formal MTD was never reached; also recorded: not reached
response duration of PR ([2]; patient with malignant melanoma): 7.2 months
response duration of PR ([2]; patient with squamous cell non-small-cell lung cancer): 7.1 months
response duration of PR ([2]; patient with squamous-cell carcinoma of the oesophagus): 1.5 months
stable disease lasting >3 months, patients [2]: 12
Median (95% CI) duration of s.d. ([2]; 12 patients): 5.6 (3–6.5) months
partial response, patients ([2]; 21 assessable patients): 3
stable disease, % of patients ([2]; 21 assessable patients): 57%
stable disease, patients ([2]; 21 assessable patients): 12
partial response, % of patients ([2]; 21 assessable patients, confirmed after ⩾4 weeks): 14%
gene expression analysis, transcriptional response [3]: transcriptional response to the drug indicative of amino acid depletion
phosphorylation of mTOR substrates [3]: inhibited
protein synthesis [3]: reduced
combination with chemotherapeutic agents, antiproliferative effects [4]: synergises
selectivity [5]: selectivity for transformed over nontransformed cells
effect on platelets ([6]; single agent dose escalation studies, ref Ossenkoppele et al, 2009, Reid et al): platelet suppressive effect
most commonly reported AEs ([6]; single agent oral daily dosing, ref Reid et al, 2009): fatigue, thrombocytopenia, peripheral oedema and diarrhoea
Dose-limiting toxicities, patients ([6]; single agent tosedostat 320 mg, ref Reid et al, 2009): two of four patients
MTD with single agent tosedostat ([6]; solid tumour patients treated for at least 28 days, oral daily, ref Reid et al, 2009): 240 mg
effect of paclitaxel coadministration on Cmax, tmax and t½ ([7]; day 21 versus day 22): tendency for a decreased Cmax and an increased tmax and t½
effect of paclitaxel coadministration on overall exposure (AUC0−t) ([7]; day 21 versus day 22): unaffected by paclitaxel administration; also recorded: unaffected by paclitaxel coadministration
AUC(0-t) [7, 8]: 1140 ng·h/mL
AUC(0-t) [7, 9]: 1890 ng·h/mL
Cmax [7, 8]: 522 ng/mL
Cmax [7, 9]: 969 ng/mL
Tmax [7, 8]: 1.2 h
Tmax [7, 9]: 1.2 h
half-life [7, 8]: 1.2 h
half-life [7, 9]: 1.3 h
Vd/F [7, 8]: 179 L
Vd/F [7, 9]: 72 L
AUC(0-t) [7, 10]: 1920 ng·h/mL
Cmax [7, 10]: 880 ng/mL
Tmax [7, 10]: 1.7 h
half-life [7, 10]: 1.1 h
Vd/F [7, 10]: 112 L
AUC(0-t) [7, 11]: 2520 ng·h/mL
Cmax [7, 11]: 1400 ng/mL
Tmax [7, 11]: 1.7 h
half-life [7, 11]: 1.1 h
Vd/F [7, 11]: 123 L
AUC(0-t) [7, 12]: 896 ng·h/mL
AUC(0-t) [7, 13]: 1410 ng·h/mL
AUC(0-t) [7, 14]: 1400 ng·h/mL
AUC(0-t) [7, 15]: 1710 ng·h/mL
Cmax [7, 12]: 289 ng/mL
Cmax [7, 13]: 527 ng/mL
Cmax [7, 14]: 615 ng/mL
Cmax [7, 15]: 399 ng/mL
Tmax [7, 12]: 4 h
Tmax [7, 13]: 2 h
Tmax [7, 14]: 1.3 h
Tmax [7, 15]: 4 h
half-life [7, 12]: 2.4 h
half-life [7, 13]: 3.1 h
half-life [7, 14]: 4 h
half-life [7, 15]: 3.1 h
Vd/F [7, 12]: 258 L
Vd/F [7, 13]: 276 L
Vd/F [7, 14]: 587 L
Vd/F [7, 15]: 471 L
PK interaction between tosedostat and paclitaxel ([7]; in vivo): no PK interaction
overall exposure versus dose ([7]; tosedostat 90–180 mg, plasma): increased in a dose proportional manner
